# According to patent US11208379B2, “Compounds, compositions, methods for treating diseases, and methods for preparing compounds” (UNIVERSITY OF LOUISVILLE RESEARCH FOUNDATION, INC., priority 2017, dated 2021):
# System: A549 lung cancer cells
# Test: Cell death / cell survival by trypan blue exclusion
# Type: cell-based, human
# Conditions: A549, 1 μM, FIG. 36 top panel
# Method: A549 (human lung adenocarcinoma) cells and MDA-MB-231 (human breast adenocarcinoma) cells were cultured in DMEM medium containing 10% FBS and 1% Penicillin/Streptomycin. IMR-90 (human non-malignant lung fibroblast) cells were cultured in EMEM medium containing 10% FBS and 1% Penicillin/Streptomycin. MCF10A (human non-malignant breast epithelial) cells in MEBM containing 10% FBS. Cell viability after treatment was determined using 3-(4,5-dimethylthiazol-2-yl)-2,5-diphenyltetrazolium bromide (MTT). After 72 h treatment with compound, a 5 mg/ml solution MTT of (Sigma, St. Louis, Mo.) was added in at 1/10 total sample volume. Cells were then incubated for 4 h. Lysis buffer (10% SDS in 0.01 N HCl) was added at half of the original sample volume and incubated overnight. Plates were read at 570 nm. Graphs indicate average of one or two experiments (performed in quadruplet wells)±SEM. Cell death in A549 cells was assessed by trypan blue exclusion. […] ROS production in A549 lung cancer cells after 48 h treatment with the compounds was assayed using ROS-Glo™ H2O2 Assay Kit (Promega).
# A549 (human lung adenocarcinoma) cells and MDA-MB-231 (human breast adenocarcinoma) cells were cultured in DMEM medium containing 10% FBS and 1% Penicillin/Streptomycin. IMR-90 (human non-malignant lung fibroblast) cells were cultured in EMEM medium containing 10% FBS and 1% Penicillin/Streptomycin. […]
smiles,measurement,value
CCOC(=S)N/N=C(C)/C(C)=N/NC(=S)NC [I-4],cell viability (trypan blue exclusion),less effective
